The results in this text go back to patent US20170030891A1, “BLOOD CONDITION ANALYSIS DEVICE, BLOOD CONDITION ANALYSIS SYSTEM, BLOOD CONDITION ANALYSIS METHOD, AND PROGRAM” (SONY CORPORATION, priority 2014, published 2017).

For test [1], the system named is platelets. Put plainly: Example 1: complex permittivity in the process of coagulation of blood with CyD or Pefabloc at various concentrations. It is filed as cell-based. To be noted: sample with Pefabloc concentration 0%, FIG. 24; addition of 8 μl of CyD to 180 μl of blood; blood from a healthy individual. As to the method: (§1) Hereinafter, the effects of the present disclosure will be described in detail. In this example, CyD or Pefabloc was added at various concentrations to a blood sample collected from a healthy individual, and changes in the complex permittivity in the process of coagulation were measured.
(§2) As shown in the following Mathematical Formula 1, the clot firmness CF depends on the effective concentration of platelets PLT and the effective concentration of fibrinogen FIB. Incidentally, a, b, and c in the following Mathematical Formula 1 are parameters determined by measurement.
(§3) Here, by applying the analysis method shown in FIG. 8 to the data of a sample having a Pefabloc concentration of 0% shown in FIG. 24, it can be estimated that the CyD concentration at which the contribution of platelets disappears is 3.4 μg/ml (the addition of 8 μl of CyD to 180 μl of blood). As a result, the effective concentration of platelets (142000/μl) can be determined. In a similar manner, the amount of fibrinogen can be determined using the data of a sample having a CyD concentration of 0% shown in FIG. 25.

Test [2] relates to platelet factors. Put plainly: time-dependent changes in real part of complex permittivity of blood samples having different CyD concentrations at 10 MHz. The test is classed as cell-based. The source says:
The electrical characteristic measurement device 10 includes a measurement unit that applies a voltage between a pair of electrodes provided in a sample container filled with a blood sample to be evaluated, and measures the electrical characteristics of the blood sample over time at a specific frequency or frequency band. Examples of electrical characteristics measured by the electrical characteristic measurement device 10 include the impedance, conductance, admittance, capacitance, permittivity, conductivity, and phase angle, as well as amounts obtained by converting them into the amounts of electricity. Incidentally, the blood condition analysis system 1 of this embodiment can perform evaluation from at least one kind of these electrical characteristics, but may also utilize two or more kinds of electrical characteristics.
In the measurement step S1, the electrical characteristics of two or more blood samples adjusted from one blood specimen and having different drug types or concentrations are measured over time at a specific frequency or frequency band. At this time, the conditions for the electrical characteristic measurement are not particularly limited, and may be suitably set according to the kind of electrical characteristics and the like within a range where the blood to be evaluated is not deteriorated.
In the analysis step S2, utilizing data of time-dependent changes in the electrical characteristics measured by the electrical characteristic measurement device 10, the influence of the drug or a factor in the blood on the coagulation system or fibrinolysis system of the blood is evaluated by the blood condition analysis device 11. For example, from data of time-dependent changes in the electrical characteristic of each blood sample, parameters conventionally used for the evaluation of the coagulation system or fibrinolysis system of blood are calculated. […]
In addition, for example, in the case where the coagulation system is evaluated, examples of coagulation factors to be evaluated include platelet factors and fibrinogen. […]

Test [3] concerns the target T1, fibrinogen (Homo sapiens, UniProt P02675+P02679).
T1 construct: from tissue; host or cells: blood sample (donor not described)
Put plainly: coagulation amplitude and coagulation time of blood samples vs fibrinogen inhibitor (Pefabloc) concentration. To be noted: relation to Pefabloc concentration, FIG. 15A and 15B. The text has this:
Further, by using a fibrinogen inhibitor, such as Pefabloc, as the drug, the influence of fibrinogen can also be evaluated. FIG. 15A is a diagram showing the relation between the fibrinogen inhibitor (Pefabloc) concentration and the coagulation amplitude, while FIG. 15B is a diagram showing the relation with the coagulation time. […] Thus, utilizing this characteristic, the influence of fibrinogen can be evaluated, or the amount of fibrinogen can be estimated.

For test [4], the target named is T1, fibrinogen. The test is described as follows: Example 1: complex permittivity in the process of coagulation of blood with CyD or Pefabloc at various concentrations. To be noted: from PFG concentration dependence at CyD concentration 0, FIG. 25; blood from a healthy individual. As to the method:
as §1, §2, §3
Then, the effective concentration of platelets PLT can be estimated from data of CyD concentration dependence. In addition, the effective concentration of fibrinogen FIB can be estimated from data of PFG concentration dependence. […]

Test [5] concerns fibrinolysis system of the blood. Put plainly: complex permittivity at 10 MHz of blood samples with fibrinolysis system promotor (tPA) and inhibitor (aprotinin). To be noted: aprotinin added to blood with tPA, 10 MHz, FIG. 10. The protocol: In addition, for example, in the case where the fibrinolysis system is evaluated, examples of coagulation factors to be evaluated include plasminogen and plasmin. In that case, as a drug to be added to the blood sample, an activator or inhibitor of plasminogen or plasmin is usable. FIG. 9 is a diagram showing time-dependent changes in the real part (∈′) of the complex permittivity at 10 MHz of blood samples having different fibrinolysis system promotor (tPA) and fibrinolysis system inhibitor (aprotinin) concentrations.
For the evaluation of the fibrinolysis-system blood, for example, a value obtained by dividing the amplitude after 30 minutes from the time B shown in FIGS. 2A-2B by the amplitude at the time B (LI30: the source of clot firmness after a predetermined period of time from the maximum firmness accompanying fibrinolysis) can be used as an evaluation parameter.

In test [6] the test system is blood coagulation. Put plainly: complex permittivity at 10 MHz of blood samples having different heparin concentrations. The conditions noted are these: relation to heparin concentration, FIG. 12. As to the method: The blood condition analysis method of this embodiment is not limited to the evaluation criteria and evaluation methods described above. For example, it is also possible that heparin is used as the drug, and the suppressing effect of heparin on blood coagulation is evaluated. FIG. 11 is a diagram showing time-dependent changes in the real part (∈′) of the complex permittivity of blood samples having different heparin concentrations at 10 MHz, and FIG. 12 is a diagram showing the relation between the clotting time determined from the values of ∈′ at 10 MHz shown in FIG. 11 and the heparin concentration. In addition, FIG. 13 is a diagram showing the coagulation curves of blood samples having different heparin concentrations, and FIG. 14 is a diagram showing the relation between the heparin concentration and the difference in clotting time.

T1 sequence (P02671 20-629 partner limits assumed): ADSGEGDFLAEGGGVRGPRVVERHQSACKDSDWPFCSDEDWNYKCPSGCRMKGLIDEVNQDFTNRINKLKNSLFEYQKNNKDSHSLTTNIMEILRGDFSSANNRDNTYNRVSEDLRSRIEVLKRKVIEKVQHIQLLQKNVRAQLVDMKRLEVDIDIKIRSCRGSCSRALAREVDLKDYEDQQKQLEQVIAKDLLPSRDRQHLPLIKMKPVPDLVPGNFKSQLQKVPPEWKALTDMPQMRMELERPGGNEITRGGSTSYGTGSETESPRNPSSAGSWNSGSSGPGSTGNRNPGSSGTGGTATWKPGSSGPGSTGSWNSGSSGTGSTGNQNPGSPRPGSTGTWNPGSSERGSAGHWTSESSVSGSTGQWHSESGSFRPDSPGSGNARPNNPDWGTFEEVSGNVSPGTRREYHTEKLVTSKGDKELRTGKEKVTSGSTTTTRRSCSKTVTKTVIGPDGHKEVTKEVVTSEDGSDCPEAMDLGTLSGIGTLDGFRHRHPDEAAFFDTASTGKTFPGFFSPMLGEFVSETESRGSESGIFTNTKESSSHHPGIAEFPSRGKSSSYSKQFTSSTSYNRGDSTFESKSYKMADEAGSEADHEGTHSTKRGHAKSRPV
T1 sequence (P02675 31-491): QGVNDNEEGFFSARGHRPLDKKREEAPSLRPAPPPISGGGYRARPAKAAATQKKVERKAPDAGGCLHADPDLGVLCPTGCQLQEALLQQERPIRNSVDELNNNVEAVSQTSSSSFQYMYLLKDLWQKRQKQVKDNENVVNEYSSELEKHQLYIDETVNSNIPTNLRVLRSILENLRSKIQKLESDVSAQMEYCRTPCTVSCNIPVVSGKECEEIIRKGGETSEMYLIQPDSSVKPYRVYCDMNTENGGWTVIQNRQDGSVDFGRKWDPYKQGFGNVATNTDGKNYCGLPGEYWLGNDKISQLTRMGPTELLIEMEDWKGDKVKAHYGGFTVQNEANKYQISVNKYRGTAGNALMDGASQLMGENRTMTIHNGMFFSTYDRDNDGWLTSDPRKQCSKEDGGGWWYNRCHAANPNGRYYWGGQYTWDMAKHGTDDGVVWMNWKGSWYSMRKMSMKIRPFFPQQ
T1 sequence (P02679 27-433 limits assumed): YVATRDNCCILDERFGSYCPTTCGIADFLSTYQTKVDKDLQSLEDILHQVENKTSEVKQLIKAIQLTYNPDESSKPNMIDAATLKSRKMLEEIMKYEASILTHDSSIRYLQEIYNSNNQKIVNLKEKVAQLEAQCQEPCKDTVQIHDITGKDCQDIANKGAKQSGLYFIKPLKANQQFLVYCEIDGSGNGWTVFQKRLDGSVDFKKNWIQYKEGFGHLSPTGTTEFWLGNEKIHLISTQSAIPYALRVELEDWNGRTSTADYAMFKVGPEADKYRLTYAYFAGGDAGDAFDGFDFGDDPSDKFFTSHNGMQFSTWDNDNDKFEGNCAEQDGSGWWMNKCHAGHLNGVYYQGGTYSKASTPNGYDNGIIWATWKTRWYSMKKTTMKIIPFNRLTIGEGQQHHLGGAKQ

For the molecule `C=C1[C@@H](C)[C@H]2[C@H](Cc3ccccc3)NC(=O)[C@]23[C@H](OC(C)=O)/C=C/[C@@](C)(O)C(=O)[C@@H](C)C/C=C/[C@H]3[C@@H]1O` [CyD, cytochalasin D], the “CyD concentration at which the contribution of platelets disappears” value in test [1] is 3.4 µg/mL. The “amount of CyD for inhibiting the platelet factors” value in test [2] (blood sample of FIG. 8, number of platelets 136500 per 1 μl) came to 25 ng per platelet. Further, in test [2] (from coagulation rate vs CyD concentration (FIG. 8), agrees with coagulation rate of blood sample containing excess CyD), the “minimum drug dose to completely suppress the action of platelet factors” value worked out at 3.3 µg/mL. In test [2] (relation to CyD concentration, FIG. 7 and FIG. 8), the “coagulation amplitude and coagulation rate determined from the real part of the complex permittivity” value is reported as “correlated with the CyD concentration”.

For the molecule “H-Gly-Pro-Arg-Pro-OH×AcOH (H-GPRP-OH; also: acetate salt) [Pefabloc, fibrinogen function suppressor]”, the “coagulation amplitude and clotting time” value in test [3] is “the coagulation amplitude and the clotting time change with an increase in the fibrinogen inhibitor (Pefabloc) concentration”. In test [4], the “effective concentration of fibrinogen FIB (equivalent PFG)” value is 1000 µg/mL.

Regarding aprotinin, the “LI30 (amplitude after 30 minutes from time B divided by amplitude at time B)” value in test [5] was “turns back to the value of the control blood sample”.

Regarding heparin, the “clotting time determined from ∈′ at 10 MHz” value in test [6] is recorded as “the clotting time increases with an increase in the heparin concentration”.
